Experimental data: ChEMBL document CHEMBL5352486, “Design, synthesis, in vitro - In vivo biological evaluation of novel thiazolopyrimidine compounds as antileishmanial agent with PTR1 inhibition” (Eur J Med Chem, 2023)
pIC50: −log10 of the molar value. Values after ≈ are worked out from the molar mass of the structure shown.

Legend:
[1] = target: T1, Pteridine reductase 1 (Leishmania major, UniProt Q01782); assay: Inhibition of recombinant Leishmania major PTR1 expressed in Escherichia coli BL21 using folic acid as substrate in presence of NADPH
T1 sequence (Q01782 whole entry): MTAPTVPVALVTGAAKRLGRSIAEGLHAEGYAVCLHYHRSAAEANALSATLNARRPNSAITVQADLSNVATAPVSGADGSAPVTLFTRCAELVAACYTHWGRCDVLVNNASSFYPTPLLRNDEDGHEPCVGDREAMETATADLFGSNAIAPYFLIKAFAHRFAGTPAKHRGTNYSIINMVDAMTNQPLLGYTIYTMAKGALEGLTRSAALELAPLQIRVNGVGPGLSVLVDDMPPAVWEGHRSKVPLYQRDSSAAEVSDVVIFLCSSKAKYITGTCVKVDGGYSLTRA

[2] = tested on: Leishmania infantum; assay: Antileishmanial activity against Leishmania infantum MHOM/TN/1980/IPT1 incubated for 48 hrs by XTT method; format: functional, organism-based; details: MHOM/TN/1980/IPT1, 48 h
[3] = tested on: Leishmania tropica; assay: Antileishmanial activity against Leishmania tropica MHOM/A7/1974/SAF-K27 incubated for 48 hrs by Neubauer hemocytometer analysis; format: functional, organism-based; details: MHOM/A7/1974/SAF-K27, 48 h
[4] = tested on: Leishmania tropica; assay: Antileishmanial activity against Leishmania tropica MHOM/A7/1974/SAF-K27 incubated for 48 hrs by XTT method; format: functional, organism-based; details: MHOM/A7/1974/SAF-K27, 48 h
[5] = tested on: DHFR (human) versus PTR1 (Leishmania major); assay: Selectivity index, ratio of IC50 for human DHFR to IC50 for Leishmania major PTR1; format: toxicity; details: human DHFR enzyme and Leishmania major PTR1 enzyme, read-out: Ratio IC50
[6] = (§1) Cytotoxicity against mouse RAW264.7 cells by alamar blue method; format: toxicity, cell-based; details: mouse, RAW264.7 cells
[7] = tested on: RAW264.7; assay: as §1; format: toxicity, cell-based; details: raw264.7
[8] = (§2) Cytotoxicity against mouse L929 cells by alamar blue method; format: toxicity, cell-based; details: mouse, L929 cells
[9] = tested on: L929; assay: as §2; format: toxicity, cell-based; details: l929
[10] = target: T2, Dihydrofolate reductase (Homo sapiens, UniProt P00374); assay: Inhibition of human DHFR using dihydrofolate as substrate in presence of NADPH; format: toxicity
T2 sequence (P00374 whole entry): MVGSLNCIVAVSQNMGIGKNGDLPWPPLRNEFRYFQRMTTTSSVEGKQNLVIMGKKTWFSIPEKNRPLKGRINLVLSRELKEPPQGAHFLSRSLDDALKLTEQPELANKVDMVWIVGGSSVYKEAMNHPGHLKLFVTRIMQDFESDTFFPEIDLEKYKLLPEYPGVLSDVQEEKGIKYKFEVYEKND

[11] = tested on: Leishmania infantum; assay: Antileishmanial activity against Leishmania infantum MHOM/TN/1980/IPT1 incubated for 48 hrs by Neubauer hemocytometer analysis; format: functional, organism-based; details: MHOM/TN/1980/IPT1, 48 h

| Structure (SMILES) | pIC50 [1] | IC50 [2] [µg/mL] | IC50 [3] [µg/mL] | IC50 [4] [µg/mL] | selectivity ratio [5] | IC50 [6] [µg/mL] | log10 IC50 (µg/mL) [7] | IC50 [8] [µg/mL] | log10 IC50 (µg/mL) [9] | pIC50 [10] | IC50 [11] [µg/mL] |
| --- | --- | --- | --- | --- | --- | --- | --- | --- | --- | --- | --- |
| CN1CCN(c2ncc3nc(NC(=O)c4ccc(Cl)cc4)sc3n2)CC1 | 4.55 | 15.4 (≈ 39.7 µM) | 15.6 (≈ 40.2 µM) | 15.3 (≈ 39.4 µM) | 9.54 | 14.1 (≈ 36.3 µM) | 1.15 | 25.7 (≈ 66.1 µM) | 1.41 | 3.57 | 15.7 (≈ 40.3 µM) |
| O=C(Nc1nc2cnc(N3CCCC3)nc2s1)c1ccc(Cl)c([N+](=O)[O-])c1 | 4.83 | 12.7 (≈ 31.3 µM) | 10.2 (≈ 25.1 µM) | 10.6 (≈ 26.2 µM) | 25.1 | 8.98 (≈ 22.2 µM) | 0.95 | 24.4 (≈ 60.2 µM) | 1.39 | 3.43 | 12.3 (≈ 30.3 µM) |
